Data taken from US5473039A, “Polypeptide analogs of apolipoprotein E, diagnostic systems and methods using the analogs” (The Scripps Research Institute, priority 1991, dated 1995).
One block for each substance: values may come before it. Ends that are not written are not given here.

Experiments:
fibroblast LDL receptors = target: T1, fibroblast LDL receptors (Homo sapiens, UniProt P01130); test: 125I-LDL binding to fibroblasts; conditions: for effect of substitution on ability to inhibit binding of 125I-LDL to fibroblasts: substitution at both positions of tandem peptide
T1 construct: transferred to DMEM medium with 10% lipoprotein-depleted serum (LPDS) for 48 hr to upregulate the LDL receptors; endogenous in cells; host or cells: normal fibroblasts
From the text: The role of specific amino acids within residues 141-155 of intact apo E has been studied by Lalazar et al., J. Biol. Chem., 263:3542 (1988) with human apo E variants containing single amino acid substitutions. The variants were produced in a bacterial expression system complexed with the phospholipid, dimyristoylphosphatidylcholine (DMPC) and tested for their ability to bind to fibroblast LDL receptors. Lalazar et al., J. Biol. Chem., 263:3542 (1988). To confirm that the tandem peptide was bound by the LDL receptor and to identify amino acids within this peptide that were critical for binding, three tandem peptides were prepared as described in Example 1 that contained the same amino acid substitutions at both positions in the tandem sequence. The changes included substitutions of the basic amino acids Lys 143 to Ala, Arg 150 to Ala, and Leu 144 with an alpha helix disrupting amino acid, Pro. ^125 I-LDL at a specific activity of 700-900 cpm/ng (>99% precipitable by 10% TCA) was used for the binding assay as described in Example 9. Normal fibroblasts were plated in 16 mm culture dishes, grown for 72-96 hr in DMEM medium with 10% fetal bovine serum (FBS) and then transferred to DMEM medium with 10% lipoprotein-depleted serum (LPDS) for 48 hr to upregulate the LDL receptors. The amount of ^125 I-LDL bound per well was normalized to the protein content of each well, which was measured with the Bio-Rad protein assay reagent using bovine serum albumin (BSA) as a standard.

[1] = tested on: Human peripheral blood mononuclear (PBM) cells; test: PHA-stimulated PBM cell proliferation in serum-free CFBI medium; type: cell-based; conditions: for IC50: read-out: Average Specific Activity (peptide concentration that causes a 50% reduction in activity)
Procedure: In these studies, human peripheral blood mononuclear (PBM) cells were isolated and assayed for phytohemagglutinin (PHA)-stimulated proliferation as described by Pepe et al (J. Immunol., 136:3716-3723, 1986) except that the cells were resuspended and cultured in a serum-free and protein-free CFBI medium as described by Shive et al, Proc. Natl. Acad. Sci. […] After 48 h the cultures were pulsed for 18 h with […] of [^3 H]-methylthymidine and harvested onto glass fiber filters. Radioactivity of the filters was counted in a Beckman liquid scintillation counter. […] The average biological activity of each polypeptide for inhibiting lymphocyte […] proliferation is shown in Table 6, and is expressed as an average specific activity, which is the peptide concentration that causes a 50% reduction in activity.

[2] = tested on: Human peripheral blood mononuclear (PBM) cells; test: PHA-stimulated lymphocyte proliferation (3H-thymidine uptake); type: cell-based; conditions: for ED50 or dose of peptide required to inhibit lymphocyte proliferation 50%: Example 17
From the text: A lymphocyte cell culture system was used to examine the ability of various polypeptides and conjugates to mimic the ability of Apo E to inhibit lymphocyte differentiation as evidence by proliferation.
Human peripheral blood mononuclear (PBM) cells are isolated from whole blood on a Ficoll-Hypaque gradient. The collected PBMs are washed three times with fresh medium (RPMI-1640 plus 5% fetal bovine serum, glutamine, penicillin, streptomycin and HEPES buffer). After washing, the cells are counted and set at a density of 1×10^5 /ml. For culture, 0.2 ml of the cells are plated per well of a 96-well microtiter plate. The peptide or conjugate is added to the wells in a 50 ul volume that can be either filter or UV sterilized. The typical timing for this experiment is to expose the cells to the Apo E polypeptide or self-conjugate over night. PHA, the mitogen that stimulates lymphocyte growth and proliferation, is added the next day. Forty-eight hours after the addition of PHA, 1 uCi of ^3 H-thymidine is added per well in a 1 ul volume and 18-24 hours later the cells are harvested on a mash. The mash cell harvester functions to collect the cells on filter paper where they are washed with buffer to remove free ^3 H-thymidine. The filter papers are dried, put into scintillation vials with scintillation cocktail and the B emissions obtained. Each data point collected represents the average thymidine uptake in four wells, and the standard error was less than 10% for all data points.
Various concentrations of various Apo E peptide were added to cultures that contained 8×10^5 peripheral blood mononuclear cells per ml. The cells were cultured at 37C and RPMI with 5% serum. All cells were exposed to PHA at 24 hours, labeled with 3H-thymidine at 72 hours and harvested at 90 hours. The counts per minute (cpm) of 3H-thymidine in the harvested cells was measured, and the data are expressed as the mean of four wells per treatment as a measure of thymidine uptake (x 1000 cpm). The standard deviation was less than 10% for all means.

LDL receptor = LDL receptor (Homo sapiens, UniProt P01130); test: fibroblast 125I-LDL degradation; type: cell-based; set-up: transferred to DMEM medium with 10% lipoprotein-depleted serum (LPDS) for 48 hr to upregulate the LDL receptors; endogenous in cells; host or cells: normal fibroblasts; conditions: molar basis
Procedure: A trimer of the p141-155 peptide, p(141-155)3, was synthesized as in Example 1 and its activity compared with p(141-155) (monomeric) and with p(141-155)2 (dimeric) peptide. Normal fibroblasts were plated in wells of a 96-well culture plate and grown for 96 hr in DMEM medium with 10% FBS. The cells were transferred to DMEM medium with 10% LPDS for 48 hr to up regulate the LDL receptors. The LDL degradation assay was performed according to Example 9 with 2 μg/ml of ^125 I-LDL (300-500 cpm/ng) in 0.2 ml/well in DMEM medium with 10% LPDS and incubated for 5 hr at 37° C. The supernatants removed from the wells were extracted with 10% TCA. The TCA soluble counts were normalized to protein content per well as measured by the Bio-Rad protein assay.

[3] = tested on: ovarian theca/interstitial cells; test: ovarian androgen (androstenedione) production, LH-stimulated cultures; type: cell-based, rats; conditions: non-conjugated, monomeric form
From the text: The cell system used to examine the effect of various peptides and conjugates on ovarian androgen production was that described by Curtiss et al., J. Biol. Chem., 263:10965, (1988). Briefly, hypophysectomized (pituitary removed) immature female rats are sacrificed by cervical dislocation. The ovaries taken from the rats were trimmed free of fat and other non-ovarian tissues, cut into approximately six to eight pieces per ovary and dissociated in a solution of collagenase Dnaase which degrades the connective tissue releasing cell clusters. Approximately one to two hours of 37C incubation is required to dissociate the tissue. The cells were washed three times with fresh McCoy's 5A modified medium supplemented with glutamine and penicillin/streptomycin. No serum was added to this medium. The cells were cultured over night in 10 ml of medium in a T-25 flask to allow the non-steroidogenic cells to adhere. The next day non-adherent cells were recovered, washed three times with fresh media, counted and plated at a density of 1×10^3/ ml aliquotting 0.2 ml per well of a 96-well microtiter plate. All media in the experiment contains luteinizing hormone (LH) at 4 ng/ml and human high density lipoprotein (HDL) at 300 μg protein/mi. Monomeric peptides, peptide-BSA conjugates and self-conjugated peptide preparations at various concentrations (0.2 to 50 μg/ml) were added to the cells. The cells were then cultured for 48 hours at 37C, the supernatants were recovered, transferred to a clean 96-well microtiter plate and kept at -20C until the concentrations of androstenedione and progesterone were measured by radioimmunoassay. Each data point represents the average of measured androstenedione concentrations in four wells per treatment, and the standard error was less than 10% for all data points.
The ability of tandem Apo E peptide p(141-155)2 and self-conjugates of this peptide to affect ovarian androgen production was examined using the assay described in Example 4. […] After 48 hours of culture, the supernatants were collected, the androstenedione concentration measured by radioimmunoassay. […]

T1 sequence (P01130 22-860): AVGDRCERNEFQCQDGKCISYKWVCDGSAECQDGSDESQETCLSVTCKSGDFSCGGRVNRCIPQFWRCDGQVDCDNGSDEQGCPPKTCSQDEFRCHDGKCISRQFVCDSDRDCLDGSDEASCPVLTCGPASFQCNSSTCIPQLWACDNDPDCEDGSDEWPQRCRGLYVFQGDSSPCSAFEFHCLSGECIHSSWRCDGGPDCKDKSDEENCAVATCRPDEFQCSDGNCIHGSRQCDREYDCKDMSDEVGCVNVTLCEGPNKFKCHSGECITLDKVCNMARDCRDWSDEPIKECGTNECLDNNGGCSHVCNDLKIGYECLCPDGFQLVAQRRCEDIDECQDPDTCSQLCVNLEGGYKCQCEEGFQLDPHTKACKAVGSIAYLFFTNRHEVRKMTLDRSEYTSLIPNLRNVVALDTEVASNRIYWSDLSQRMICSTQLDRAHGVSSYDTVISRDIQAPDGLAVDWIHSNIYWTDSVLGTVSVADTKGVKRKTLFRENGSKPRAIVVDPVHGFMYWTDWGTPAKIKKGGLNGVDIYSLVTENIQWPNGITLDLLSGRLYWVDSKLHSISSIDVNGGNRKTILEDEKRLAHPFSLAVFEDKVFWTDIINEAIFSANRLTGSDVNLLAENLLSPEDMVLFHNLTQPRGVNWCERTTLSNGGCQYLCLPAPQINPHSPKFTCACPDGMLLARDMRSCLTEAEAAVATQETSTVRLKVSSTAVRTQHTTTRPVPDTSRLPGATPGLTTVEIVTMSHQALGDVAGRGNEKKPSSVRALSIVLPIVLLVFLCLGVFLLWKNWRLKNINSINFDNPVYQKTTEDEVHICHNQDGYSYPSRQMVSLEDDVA
LDL receptor, sequence (P01130 22-860): as above

effect of substitution on ability to inhibit binding of 125I-LDL to fibroblasts (fibroblast LDL receptors): smallest effect
Substance: LRALRKRLLRDADDLLRALRKRLLRDADD [p(K143 --A)2]
peptide concentration above which uptake of tritiated thymidine / lymphocyte proliferation was inhibited [1]: above 4 uM
IC50 [1]: 5.6 ± 1.7 µM

Substance: LRKLRKRLLADADDLLRKLRKRLLADADD [p(K150 --A)2]
effect of substitution on ability to inhibit binding of 125I-LDL to fibroblasts (fibroblast LDL receptors): without significant alterations in the biological activity
peptide concentration above which uptake of tritiated thymidine / lymphocyte proliferation was inhibited [1]: above 4 uM
IC50 [1]: 7.5 ± 3 µM

effectiveness in inhibiting fibroblast 125I-LDL degradation relative to the dimeric peptide (LDL receptor): 15 times
Substance: LRKLRKRLLRDADDLLRKLRKRLLRDADD-LRKLRKRLLRDADDL [p(141-155)3]
ED50 or dose of peptide required to inhibit lymphocyte proliferation 50% [2]: 7 µM

activity in inhibiting 125I-LDL binding to fibroblasts (fibroblast LDL receptors; at 60 μM): no activity
Substance: LRKPRKRLLRDADDLLRKPRKRLLRDADDL [144 leu--pro, (LRKPRKRLLRDADDL)2]

Substance: RGLSAIRERL [p172-182, reference compound]
effect on androgen secretion [3]: no effect

Substance: Self-conjugated apo AI95-105: self-conjugated control peptide of apo AI residues 95-105 (AKVQPYLDDFQ; also: self-conjugated; UniProt P02647 119-129, looked up, fragment) [reference compound]
3H-Thymidine Uptake (cpm ± SD), With Washing ([2]; 40 μg/ml, cells washed three times at 24 hr prior to PHA): 64,524 ± 4,200 cpm
3H-Thymidine Uptake (cpm ± SD), No Washing ([2]; 40 μg/ml, no washing): 83,480 ± 4,027 cpm

Substance: Y(LRKLRKRLLRDADDL)4 [Tetramer]
ED50 or dose of peptide required to inhibit lymphocyte proliferation 50% [2]: 1.2 µM
inhibitory activity relative to the dimer ([1]; molar basis): twice
IC50 [1]: 2.8 ± 1.3 µM
